Measured values reported in patent US5198430A, “Inclusion complexes with silybinin, their preparation and pharmaceutical compositions containing them” (Istituto Biochimico Italiano Giovanni Lorenzini SpA, priority 1989, dated 1993).

Legend:
in vivo = assay: in vivo; set-up: species or system Wistar rats; conditions: po, 8 mg/kg
Experimental: The absorption of the complexes of the invention has been evaluated by orally administering an aqueous solution of the composition under examination and measuring by HPLC the Silybinin bile levels. This test has been preferred because it is well known that drugs of the Silymarin kind reach in the bile the highest concentration.
The experiments have been carried out on Wistar rats weighing 180-200 g to which the compositions under examination were administered by gastric intubation. The animals were kept on an empty stomach for 16 hours. The composition to be tested was dissolved in water containing 10% of gum Arabic and were prepared solutions so that each animal was administered,each time with an amount of 5 ml/kg of said solution.
Immediately after the treatment the animals were anaesthetized and operated to check the coledocous duct. A small tube was inserted therein and the bile was collected over a period of 24 hours.
For the analytical determination 1 ml bile was treated as described in the following publication: D. Lorenz et al, Pharmacokinetic Studies with Silymarin in Human Serum and Bile--Meth. and Find.Exptl.Clin.Pharmacol.6(10) 655-661 (1984).
in test A, there were administered 20 mg/kg of Silymarin, according to a known commercial formulation which corresponds to 8 mg/kg of pure Silybinin,
in test B, there were administered 8.79 mg/kg of Silybinin having a HPLC titre of 91%, which corresponds to 8 mg/kg of pure Silybinin, used such as without excipients, […]

[1] = Resorption: excretion of Silybinin in rat bile after intragastric administration, quantitative TLC; set-up: species or system male Wistar SPF rats; conditions: in vivo, po, 5 mg/kg
Experimental: In a further experiment the resorption of Silymarin, Silybinin and of the complex of Example 6 was evaluated. For this purpose the excretion of Silybinin in the rat bile was determined in a conventional model experiment. Anesthetized male Wistar SPF rats kept under conventional conditions, were cannulated at the ductus choledochus. After intragastric administration of the test compound (5 mg Silybinin/kg) the bile fluid was collected for 5hr. The Silybinin content in the bile fluid was determined by quantitative thin layer chromatography.

[2] = Thermoanalytical studies (TG, DTG, DSC, TEA); assay type: physicochemical
Experimental: Thermoanalytical investigations were carried out on a Du Pont 990 Thermal Analyser System. TG (Thermogravimetry) DTG (Differential TG) DSC (Differential Scanning Calorimetry) and TEA (Thermal Evolution Analysis) curves of the drug, as well as those of its mechanical mixtures with DIMEB and HP-βCD and the complexes were taken simultaneously.

[3] = pH 7.5
Experimental: Release experiments with Silybinin, Silymarin and the complex of this Example were carried out according to USP XXII, paddle apparatus at pH 7.5 and 37° C.

Row | Compound | 0-24 hr Silybinin in bile per rat (in vivo) | % excreted Silybinin (in vivo; rat, 1440 min) | Bile 0-24 hr Silybinin level (in vivo; rat, 1440 min) | concentration at 24 h (in vivo; rat) | dose excreted at 24 h (in vivo; rat) | dose excreted at 5 h [1] | temperature at which decomposition of the drug begins ([2]; DSC, FIG. 4, non-complexed Silybinin) | loss of weight up to 160° C. ([2]; first decomposition step) | start of second decomposition step ([2]; region of the cyclodextrin decomposition) | release (solubility) [3]
1 | Silybinin: β-cyclodextrin Inclusion Complex (Molar Ratio 1:1) [Example 1] | 256.6 mcg/rat | 11.7% | 17.6 µg/mL |  |  |  |  |  |  | 
2 | COc1cc(C2Oc3cc(C4Oc5cc(O)cc(O)c5C(=O)C4O)ccc3OC2CO)ccc1O (centres unmarked) [Silybinin] | 11.9 mcg/rat |  |  | 1000 ng/mL | 0.6% | 0.21% | about 130 °C | 4-5% | above 250 °C | 0%
